Numbers after ± are expanded uncertainties.
Tests used:
[1] = 298.15 K, 101.33 kPa, Liquid; for viscosity: Capillary tube (Ostwald / Ubbelohde) method; for speed of sound: Sing-around technique in a fixed-path interferometer
[2] = xn = mol fraction of the nth substance listed; settings: 298.15 K, 101 kPa, Liquid; for viscosity: Capillary tube (Ostwald / Ubbelohde) method; for speed of sound: Sing-around technique in a fixed-path interferometer

What does the source list for `COCC(C)OCC(C)OC` (centres undefined) [2-methoxy-1-(2-methoxy-1-methylethoxy)propane]?
mass density [1]: 898.566 ± 0.33 kg/m3; viscosity [1]: 0.9926 ± 0.012 mPa·s; speed of sound [1]: 1205 ± 0.8 m/s

For `COCC(C)OCC(C)OC` (centres undefined) [2-methoxy-1-(2-methoxy-1-methylethoxy)propane] + CCCO, which viscosity ([2]; x1 = 0.0008) is on record?
Its viscosity is 1.955 ± 0.015 mPa·s.

What about the viscosity ([2]; x1 = 0.0061) of the same molecule?
Its viscosity is 1.928 ± 0.015 mPa·s.

What about the viscosity ([2]; x1 = 0.0186) of the same molecule?
Its viscosity is 1.866 ± 0.015 mPa·s.

And the viscosity ([2]; x1 = 0.0409)?
The viscosity was 1.775 ± 0.015 mPa·s.

What about the viscosity ([2]; x1 = 0.0666) of the same molecule?
The viscosity was 1.678 ± 0.014 mPa·s.

And the viscosity ([2]; x1 = 0.0903)?
Its viscosity is 1.599 ± 0.014 mPa·s.

What about the viscosity ([2]; x1 = 0.1309) of the same molecule?
The viscosity was 1.494 ± 0.013 mPa·s.

And the viscosity ([2]; x1 = 0.1846)?
Its viscosity is 1.382 ± 0.013 mPa·s.

And the viscosity ([2]; x1 = 0.267)?
The viscosity was 1.264 ± 0.013 mPa·s.

What about the viscosity ([2]; x1 = 0.3136) of the same molecule?
The viscosity was 1.211 ± 0.012 mPa·s.

What about the viscosity ([2]; x1 = 0.345) of the same molecule?
The viscosity was 1.184 ± 0.012 mPa·s.

And the viscosity ([2]; x1 = 0.3718)?
Its viscosity is 1.164 ± 0.012 mPa·s.

And the viscosity ([2]; x1 = 0.4516)?
Its viscosity is 1.112 ± 0.012 mPa·s.

What about the viscosity ([2]; x1 = 0.5198) of the same molecule?
Its viscosity is 1.081 ± 0.012 mPa·s.

What about the viscosity ([2]; x1 = 0.5625) of the same molecule?
The viscosity was 1.066 ± 0.012 mPa·s.

What about the viscosity ([2]; x1 = 0.6111) of the same molecule?
Its viscosity is 1.05 ± 0.012 mPa·s.

And the viscosity ([2]; x1 = 0.6459)?
Its viscosity is 1.043 ± 0.012 mPa·s.

And the viscosity ([2]; x1 = 0.7346)?
Its viscosity is 1.021 ± 0.012 mPa·s.

And the viscosity ([2]; x1 = 0.7703)?
The viscosity was 1.012 ± 0.012 mPa·s.

And the viscosity ([2]; x1 = 0.8317)?
Its viscosity is 1.005 ± 0.012 mPa·s.

And the viscosity ([2]; x1 = 0.8591)?
The viscosity was 1.002 ± 0.012 mPa·s.

And the viscosity ([2]; x1 = 0.9511)?
Its viscosity is 0.9968 ± 0.012 mPa·s.

What about the viscosity ([2]; x1 = 0.9753) of the same molecule?
Its viscosity is 0.993 ± 0.012 mPa·s.

And the viscosity ([2]; x1 = 0.9915)?
Its viscosity is 0.9927 ± 0.012 mPa·s.

What about the speed of sound ([2]; x1 = 0.0653) of the same molecule?
Its speed of sound is 1210.9 ± 0.81 m/s.

And the speed of sound ([2]; x1 = 0.1089)?
Its speed of sound is 1212.8 ± 0.81 m/s.

What about the speed of sound ([2]; x1 = 0.1451) of the same molecule?
The speed of sound was 1214 ± 0.81 m/s.

What about the speed of sound ([2]; x1 = 0.2124) of the same molecule?
The speed of sound was 1215.2 ± 0.81 m/s.

And the speed of sound ([2]; x1 = 0.2694)?
The speed of sound was 1216 ± 0.81 m/s.

And the speed of sound ([2]; x1 = 0.3041)?
The speed of sound was 1215.8 ± 0.81 m/s.

What about the speed of sound ([2]; x1 = 0.3359) of the same molecule?
Its speed of sound is 1215.6 ± 0.81 m/s.

What about the speed of sound ([2]; x1 = 0.3913) of the same molecule?
The speed of sound was 1215.6 ± 0.81 m/s.

And the speed of sound ([2]; x1 = 0.4561)?
Its speed of sound is 1215.4 ± 0.81 m/s.

And the speed of sound ([2]; x1 = 0.502)?
The speed of sound was 1215.3 ± 0.81 m/s.

And the speed of sound ([2]; x1 = 0.5464)?
Its speed of sound is 1214.6 ± 0.81 m/s.

And the speed of sound ([2]; x1 = 0.6139)?
The speed of sound was 1213.9 ± 0.81 m/s.

What about the speed of sound ([2]; x1 = 0.6513) of the same molecule?
Its speed of sound is 1213.2 ± 0.81 m/s.

What about the speed of sound ([2]; x1 = 0.708) of the same molecule?
Its speed of sound is 1212.5 ± 0.81 m/s.

And the speed of sound ([2]; x1 = 0.7572)?
Its speed of sound is 1211.4 ± 0.81 m/s.

And the speed of sound ([2]; x1 = 0.8098)?
The speed of sound was 1210.3 ± 0.81 m/s.

What about the speed of sound ([2]; x1 = 0.8457) of the same molecule?
Its speed of sound is 1209.5 ± 0.81 m/s.

What about the speed of sound ([2]; x1 = 0.9067) of the same molecule?
The speed of sound was 1207.9 ± 0.8 m/s.

And the speed of sound ([2]; x1 = 0.9576)?
The speed of sound was 1206.4 ± 0.8 m/s.

And the speed of sound ([2]; x1 = 0.9746)?
The speed of sound was 1206.1 ± 0.8 m/s.

What about the mass density ([2]; x1 = 0.0653) of the same molecule?
Its mass density is 815.198 ± 0.45 kg/m3.

What about the mass density ([2]; x1 = 0.1089) of the same molecule?
Its mass density is 824.018 ± 0.43 kg/m3.

And the mass density ([2]; x1 = 0.1451)?
The mass density was 830.582 ± 0.42 kg/m3.

What about the mass density ([2]; x1 = 0.2124) of the same molecule?
The mass density was 841.11 ± 0.41 kg/m3.

What about the mass density ([2]; x1 = 0.2694) of the same molecule?
Its mass density is 848.766 ± 0.4 kg/m3.

What about the mass density ([2]; x1 = 0.3041) of the same molecule?
Its mass density is 852.935 ± 0.39 kg/m3.

And the mass density ([2]; x1 = 0.3359)?
The mass density was 856.509 ± 0.39 kg/m3.

And the mass density ([2]; x1 = 0.3913)?
The mass density was 862.204 ± 0.38 kg/m3.

What about the mass density ([2]; x1 = 0.4561) of the same molecule?
The mass density was 868.154 ± 0.37 kg/m3.

What about the mass density ([2]; x1 = 0.502) of the same molecule?
The mass density was 872.013 ± 0.36 kg/m3.

And the mass density ([2]; x1 = 0.5464)?
The mass density was 875.439 ± 0.36 kg/m3.

What about the mass density ([2]; x1 = 0.6139) of the same molecule?
The mass density was 880.179 ± 0.35 kg/m3.

What about the mass density ([2]; x1 = 0.6513) of the same molecule?
Its mass density is 882.571 ± 0.35 kg/m3.

And the mass density ([2]; x1 = 0.708)?
Its mass density is 885.911 ± 0.34 kg/m3.

And the mass density ([2]; x1 = 0.7572)?
The mass density was 888.492 ± 0.34 kg/m3.

What about the mass density ([2]; x1 = 0.8098) of the same molecule?
The mass density was 891.002 ± 0.33 kg/m3.

And the mass density ([2]; x1 = 0.8457)?
Its mass density is 892.536 ± 0.33 kg/m3.

What about the mass density ([2]; x1 = 0.9067) of the same molecule?
The mass density was 894.986 ± 0.33 kg/m3.

What about the mass density ([2]; x1 = 0.9576) of the same molecule?
Its mass density is 896.939 ± 0.33 kg/m3.

And the mass density ([2]; x1 = 0.9746)?
Its mass density is 897.584 ± 0.32 kg/m3.

What does the source list for `CCCCCCCO` [heptan-1-ol]?
mass density [1]: 818.851 ± 0.45 kg/m3; viscosity [1]: 5.886 ± 0.034 mPa·s; speed of sound [1]: 1327.4 ± 0.84 m/s

Which mass density [1] does the source give for `CO` [methanol] here?
Its mass density is 786.548 ± 0.49 kg/m3.

What about the viscosity [1] of the same molecule?
The viscosity was 0.5444 ± 0.011 mPa·s.

And the speed of sound [1]?
The speed of sound was 1102.6 ± 0.77 m/s.

Which mass density [1] does the source give for `CCCCCO` [pentan-1-ol] here?
The mass density was 811.001 ± 0.46 kg/m3.

What about the viscosity [1] of the same molecule?
Its viscosity is 3.495 ± 0.022 mPa·s.

What about the speed of sound [1] of the same molecule?
Its speed of sound is 1276 ± 0.83 m/s.

Which results are given for `CCCO` [propan-1-ol]?
mass density [1]: 799.666 ± 0.47 kg/m3; viscosity [1]: 1.959 ± 0.015 mPa·s; speed of sound [1]: 1206.5 ± 0.8 m/s
